{"source": "patent US10441663B2", "about": "“Methods for treating cancer” (Bicycle Therapeutics Limited, priority 2016, dated 2019)", "key": {"HCT-15 xenograft": {"test_system": "HCT-15 xenograft", "experiment": "In vivo efficacy of BT1718 in HCT-15 xenograft", "set-up": "species or system Mus Musculus", "description": "The objective of this study was to evaluate the in vivo anti-tumor efficacy of BT1718in treatment of HT1080, NCI-H292, NCI-H1975, MDA-MB-231, HCC1806, RPMI2650, HCT-15, HT-29 and SNU-16 xenograft in BALB/c nude mice.\nThe HT1080, NCI-H292, NCI-H1975, MDA-MB-231, HCC1806, RPMI2650, HCT-15, HT-29 and SNU-16 tumor cells were maintained in vitro as a monolayer culture in medium supplemented with 10% heat inactivated fetal bovine serum at 37° C. in an […]. The tumor cells will be routinely subcultured twice weekly by trypsin-EDTA treatment. The cells growing in an exponential growth phase will be harvested and counted for tumor inoculation.\nMouse was inoculated subcutaneously at the right flank with tumor cells for tumor development. The animals were randomized and treatment was started when the average tumor reaches certain volume for the efficacy study, the inoculating cell amounts and starting tumor size were shown as below in Table 9. The test article administration and the animal numbers in each group were shown in the experimental design in Table 10.\nAll the procedures related to animal handling, care and the treatment in the study were performed according to the guidelines of the Association for Assessment and Accreditation of Laboratory Animal Care (AAALAC). At the time of routine monitoring, the animals were daily checked for any effects of tumor growth and treatments on normal behavior such as mobility, food and water consumption (by looking only), body weight gain/loss (body weights were measured every day), eye/hair matting and any other abnormal effect as stated in the protocol. Death and observed clinical signs were recorded on the basis of the numbers of animals within each subset.\nThe major endpoint was to see if the tumor growth could be delayed or mice could be cured. Tumor size was measured three times weekly in two dimensions using a caliper, and the volume was expressed in mm^3 using the formula: V=0.5 a×b^2 where a and b are the long and short diameters of the tumor, respectively. The tumor size was then used for calculations of T/C value. The T/C value (in percent) is an indication of antitumor effectiveness; T and C are the mean volumes of the treated and control groups, respectively, on a given day.\nTGI was calculated for each group using the formula: TGI (%)=[1−(Ti−T0)/(Vi−V0)]×100; Ti is the average tumor volume of a treatment group on a given day, T0 is the average tumor volume of the treatment group on the day of treatment start, Vi is the average tumor volume of the vehicle control group on the same day with Ti, and V0 is the average tumor volume of the vehicle group on the day of treatment start.\nSummary statistics, including mean and the standard error of the mean (SEM), are provided for the tumor volume of each group at each time point.\nStatistical analysis of difference in tumor volume among the groups was conducted on the data obtained at the best therapeutic time point after the final dose.\nA one-way ANOVA was performed to compare tumor volume among groups, and when a significant F-statistics (a ratio of treatment variance to the error variance) was obtained, comparisons between groups were carried out with Games-Howell test. All data were analyzed using Prism. P<0.05 was considered to be statistically significant."}, "MT1-MMP": {"target": "MT1-MMP (Homo sapiens, UniProt P50281)", "experiment": "Fluorescence polarisation competition binding", "description": "By means of comparison, a non-reducible BDC was prepared, BT1721, which includes a non-reducible maleimide thioether linkage which is […]."}}, "note": "*1 amine or outer side, *2 acyl side, *3 side chain or, on linkers, in order; H or OH if unused. Where a SMILES comes first, the peptide text is derived from it. Bridges are numbered along the chain shown (N, C = ends). [ ]: non-standard residue; d: D form. The star is where a group is joined. X1 = COc1cc2cc(c1Cl)N(C)C(=O)C[C@H](OC(=O)[C@H](C)N(C)C(=O)CCSSC(C)CCC(=O)*)[C@]1(C)O[C@H]1[C@H](C)[C@@H]1C[C@@](O)(NC(=O)O1)[C@H](OC)/C=C/C=C(\\C)C2; 1Nal = N[C@@H](Cc1cccc2ccccc12)C(=O)O; TBMB = c1c(C[*:1])cc(C[*:3])cc1C[*:2]; Tle = CC(C)(C)[C@H](N)C(=O)O; βAla = NCCC(=O)O; Sar = CNCC(=O)O", "data": [{"smiles": "COc1cc2cc(c1Cl)N(C)C(=O)C[C@H](OC(=O)[C@H](C)N(C)C(=O)CCSSC(C)CCC(=O)NCCC(=O)N(C)CC(=O)N(C)CC(=O)N(C)CC(=O)N(C)CC(=O)N(C)CC(=O)N(C)CC(=O)N(C)CC(=O)N(C)CC(=O)N(C)CC(=O)N(C)CC(=O)N[C@@H](C)C(=O)N[C@H]1CSCc3cc4cc(c3)CSC[C@H](NC(=O)[C@@H](C)NC(=O)[C@H](Cc3cccc5ccccc35)NC(=O)[C@H](CCC(=O)O)NC(=O)[C@H](CC(N)=O)NC(=O)[C@@H](C)NC1=O)C(=O)N[C@@H](CCC(=O)O)C(=O)N[C@@H](CC(=O)O)C(=O)N[C@@H](Cc1ccccc1)C(=O)N[C@@H](Cc1ccc(O)cc1)C(=O)N[C@@H](CC(=O)O)C(=O)N[C@@H](C(C)(C)C)C(=O)N[C@H](C(N)=O)CSC4)[C@]1(C)O[C@H]1[C@H](C)[C@@H]1C[C@@](O)(NC(=O)O1)[C@H](OC)/C=C/C=C(\\C)C2", "note": "(stereo partly shown) [BT1718] ({X1-βAla}-[Sar][Sar][Sar][Sar][Sar][Sar][Sar][Sar][Sar][Sar]AC[dA]NE[1Nal][dA]CEDFYD[Tle]C-NH2; linker 12-18-25 via TBMB (inferred))", "values": [{"measurement": "Body Weight", "setting": "HCT-15 xenograft; 1 mpk biw, day 0", "result": "22.2 ± 0.5", "unit": "g"}, {"measurement": "Tumor Volume", "setting": "HCT-15 xenograft; 1 mpk biw, day 0", "result": "157 ± 6", "unit": "mm^3"}, {"measurement": "Body Weight", "setting": "HCT-15 xenograft; 1 mpk biw, day 2", "result": "21.8 ± 0.3", "unit": "g"}, {"measurement": "Tumor Volume", "setting": "HCT-15 xenograft; 1 mpk biw, day 2", "result": "174 ± 9", "unit": "mm^3"}, {"measurement": "Body Weight", "setting": "HCT-15 xenograft; 1 mpk biw, day 4", "result": "21.6 ± 0.6", "unit": "g"}, {"measurement": "Tumor Volume", "setting": "HCT-15 xenograft; 1 mpk biw, day 4", "result": "207 ± 14", "unit": "mm^3"}, {"measurement": "Body Weight", "setting": "HCT-15 xenograft; 1 mpk biw, day 7", "result": "22.3 ± 0.5", "unit": "g"}, {"measurement": "Tumor Volume", "setting": "HCT-15 xenograft; 1 mpk biw, day 7", "result": "385 ± 19", "unit": "mm^3"}, {"measurement": "Body Weight", "setting": "HCT-15 xenograft; 1 mpk biw, day 9", "result": "21.9 ± 0.3", "unit": "g"}, {"measurement": "Tumor Volume", "setting": "HCT-15 xenograft; 1 mpk biw, day 9", "result": "585 ± 26", "unit": "mm^3"}, {"measurement": "Body Weight", "setting": "HCT-15 xenograft; 1 mpk biw, day 11", "result": "21.9 ± 0.5", "unit": "g"}, {"measurement": "Tumor Volume", "setting": "HCT-15 xenograft; 1 mpk biw, day 11", "result": "937 ± 70", "unit": "mm^3"}, {"measurement": "Body Weight", "setting": "HCT-15 xenograft; 1 mpk biw, day 14", "result": "22.1 ± 0.5", "unit": "g"}, {"measurement": "Tumor Volume", "setting": "HCT-15 xenograft; 1 mpk biw, day 14", "result": "1238 ± 36", "unit": "mm^3"}, {"measurement": "Body Weight", "setting": "HCT-15 xenograft; 3 mpk biw, day 0", "result": "21.6 ± 0.5", "unit": "g"}, {"measurement": "Tumor Volume", "setting": "HCT-15 xenograft; 3 mpk biw, day 0", "result": "157 ± 6", "unit": "mm^3"}, {"measurement": "Body Weight", "setting": "HCT-15 xenograft; 3 mpk biw, day 2", "result": "21.4 ± 0.2", "unit": "g"}, {"measurement": "Tumor Volume", "setting": "HCT-15 xenograft; 3 mpk biw, day 2", "result": "140 ± 7", "unit": "mm^3"}, {"measurement": "Body Weight", "setting": "HCT-15 xenograft; 3 mpk biw, day 4", "result": "21.6 ± 0.2", "unit": "g"}, {"measurement": "Tumor Volume", "setting": "HCT-15 xenograft; 3 mpk biw, day 4", "result": "195 ± 26", "unit": "mm^3"}, {"measurement": "Body Weight", "setting": "HCT-15 xenograft; 3 mpk biw, day 7", "result": "22.7 ± 0.4", "unit": "g"}, {"measurement": "Tumor Volume", "setting": "HCT-15 xenograft; 3 mpk biw, day 7", "result": "389 ± 47", "unit": "mm^3"}, {"measurement": "Body Weight", "setting": "HCT-15 xenograft; 3 mpk biw, day 9", "result": "22.2 ± 0.4", "unit": "g"}, {"measurement": "Tumor Volume", "setting": "HCT-15 xenograft; 3 mpk biw, day 9", "result": "581 ± 54", "unit": "mm^3"}, {"measurement": "Body Weight", "setting": "HCT-15 xenograft; 3 mpk biw, day 11", "result": "22.2 ± 0.5", "unit": "g"}, {"measurement": "Tumor Volume", "setting": "HCT-15 xenograft; 3 mpk biw, day 11", "result": "901 ± 79", "unit": "mm^3"}, {"measurement": "Body Weight", "setting": "HCT-15 xenograft; 3 mpk biw, day 14", "result": "22.3 ± 0.6", "unit": "g"}, {"measurement": "Tumor Volume", "setting": "HCT-15 xenograft; 3 mpk biw, day 14", "result": "1180 ± 143", "unit": "mm^3"}, {"measurement": "Body Weight", "setting": "HCT-15 xenograft; 10 mpk biw, day 0", "result": "22.2 ± 0.3", "unit": "g"}, {"measurement": "Tumor Volume", "setting": "HCT-15 xenograft; 10 mpk biw, day 0", "result": "157 ± 11", "unit": "mm^3"}, {"measurement": "Body Weight", "setting": "HCT-15 xenograft; 10 mpk biw, day 2", "result": "21.2 ± 0.2", "unit": "g"}, {"measurement": "Tumor Volume", "setting": "HCT-15 xenograft; 10 mpk biw, day 2", "result": "130 ± 7", "unit": "mm^3"}, {"measurement": "Body Weight", "setting": "HCT-15 xenograft; 10 mpk biw, day 4", "result": "20.2 ± 0.5", "unit": "g"}, {"measurement": "Tumor Volume", "setting": "HCT-15 xenograft; 10 mpk biw, day 4", "result": "138 ± 14", "unit": "mm^3"}, {"measurement": "Body Weight", "setting": "HCT-15 xenograft; 10 mpk biw, day 7", "result": "21.7 ± 0.3", "unit": "g"}, {"measurement": "Tumor Volume", "setting": "HCT-15 xenograft; 10 mpk biw, day 7", "result": "265 ± 16", "unit": "mm^3"}, {"measurement": "Body Weight", "setting": "HCT-15 xenograft; 10 mpk biw, day 9", "result": "19.9 ± 0.3", "unit": "g"}, {"measurement": "Tumor Volume", "setting": "HCT-15 xenograft; 10 mpk biw, day 9", "result": "342 ± 47", "unit": "mm^3"}, {"measurement": "Body Weight", "setting": "HCT-15 xenograft; 10 mpk biw, day 11", "result": "20.3 ± 0.7", "unit": "g"}, {"measurement": "Tumor Volume", "setting": "HCT-15 xenograft; 10 mpk biw, day 11", "result": "562 ± 73", "unit": "mm^3"}, {"measurement": "Body Weight", "setting": "HCT-15 xenograft; 10 mpk biw, day 14", "result": "20.8 ± 0.8", "unit": "g"}, {"measurement": "Tumor Volume", "setting": "HCT-15 xenograft; 10 mpk biw, day 14", "result": "880 ± 89", "unit": "mm^3"}, {"measurement": "Best response at 10 mg/kg", "setting": "HCT-15 xenograft; HCT-15, 10 mg/kg", "result": "Growth delay"}, {"measurement": "TGI", "setting": "HCT-15 xenograft; HCT-15, 1 mpk, biw, day 14", "result": "−0.9", "unit": "%"}, {"measurement": "Tumor Volume", "setting": "HCT-15 xenograft; HCT-15, 1 mpk, biw, day 14", "result": "1238 ± 36", "unit": "mm^3"}, {"measurement": "TGI", "setting": "HCT-15 xenograft; HCT-15, 3 mpk, biw, day 14", "result": 4.6, "unit": "%"}, {"measurement": "Tumor Volume", "setting": "HCT-15 xenograft; HCT-15, 3 mpk, biw, day 14", "result": "1180 ± 143", "unit": "mm^3"}, {"measurement": "TGI", "setting": "HCT-15 xenograft; HCT-15, 10 mpk, biw, day 14", "result": 32.5, "unit": "%"}, {"measurement": "Tumor Volume", "setting": "HCT-15 xenograft; HCT-15, 10 mpk, biw, day 14", "result": "880 ± 89", "unit": "mm^3"}, {"measurement": "Minimally Effective Dose IV BIW", "setting": "HCT-15 xenograft; HCT-15, dose leading to tumor-stasis", "result": ">10", "unit": "mg/kg"}, {"measurement": "anti-tumor activity", "setting": "HCT-15 xenograft; mouse, in vivo", "result": "did not show obvious anti-tumor activity"}, {"measurement": "Ki", "setting": "MT1-MMP", "result": 0.9, "unit": "nM"}]}]}
